As a reminder, the IC50 is the point on the concentration scale where inhibition reaches its midpoint. A lower IC50 goes with greater potency.

17 compounds from ChEMBL document CHEMBL1146169, “In silico identification and biochemical characterization of novel inhibitors of NQO1” (Bioorg Med Chem Lett, 2006) can be followed below.

Sequence of NAD(P)H dehydrogenase [quinone] 1 (P15559 whole entry): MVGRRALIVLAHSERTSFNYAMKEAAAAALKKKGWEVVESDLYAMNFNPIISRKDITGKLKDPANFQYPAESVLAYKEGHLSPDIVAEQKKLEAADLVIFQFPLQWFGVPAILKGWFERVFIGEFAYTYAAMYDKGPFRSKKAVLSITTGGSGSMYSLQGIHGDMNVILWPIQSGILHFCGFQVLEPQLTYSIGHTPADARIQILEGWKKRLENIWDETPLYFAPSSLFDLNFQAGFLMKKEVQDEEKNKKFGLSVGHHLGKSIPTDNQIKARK

This assay concerns the target NAD(P)H dehydrogenase [quinone] 1 (Homo sapiens, UniProt P15559).
Description: Inhibition of human recombinant NQO1
`O=C1c2ccccc2C(=O)c2c(O)c(NCCCNCCO)cc(O)c21` displayed a concentration for half-maximal inhibition (IC50) of 17.5 µM.

Take `CN(C)CCNc1ccc2ncn3c4ccc(O)cc4c(=O)c1c23`: the IC50 was 10 µM.

Compound `Cn1c2cc(O)ccc2c2c3nc4ccccc4nc3cc(O)c21` returned an IC50 of 3 µM.

In turn, `CNC(=O)N(OC(N)=O)C(C)=O` came in with a half-inhibitory concentration (IC50) of 55 µM.

`Nc1nc2cc3nc(N)c(N)nc3cc2nc1N`: the concentration for half-maximal inhibition (IC50) was 25 µM.

Take `O=c1c2ccccc2c(=O)c2c1c(O)cc1[nH]c3ccccc3[nH]c12`: the IC50 was determined as 2 µM.

Turning to `Cc1cc(=O)cc(C)o1`, inhibition was half-maximal at 20 µM (IC50).

Consider `COc1ccc(OC)c2cc3ccccc3cc12`, for which 10 µM corresponded to half-maximal inhibition (IC50).

For `O=[N+]([O-])c1ccc(N/N=C(\N=N\c2ccccc2)c2nc3ccccc3[nH]2)c([N+](=O)[O-])c1`, it took 35 µM to reach half-maximal inhibition (IC50).

`CCOC(=O)C1=NN(c2ccccc2)C(=O)/C1=C\NC(=S)N/N=C1\C(=O)Nc2ccccc21` had an IC50 of 35 µM.

Compound `Cn1ncc2c(Cl)ncnc21` came in with an IC50 of 105 µM.

`Nc1ccc(O)c2c1C(=O)c1c(O)c(S(=O)(=O)O)cc(N)c1C2=O` registered an IC50 of 7.5 µM.

In turn, `O=C1c2ccccc2C(=O)c2c(O)c(NCCCN3CCOCC3)cc(O)c21` displayed a half-maximal inhibitory concentration (IC50) of 2 µM.

As to `O=C1c2ccccc2C(=O)c2c(O)c(NCCCN(CCO)CCO)cc(O)c21`, the IC50 turned out to be 3 µM.

In turn, `CCOc1ccc(OCC)cc1` [1,4-DIETHOXYBENZENE] displayed a half-inhibitory concentration (IC50) of 3.5 µM.

The compound `C(=N\NC1=NCCN1)/c1c2ccccc2c(/C=N/NC2=NCCN2)c2ccccc12` [BISANTRENE] gave a concentration for half-maximal inhibition (IC50) of 25 µM.

`COc1ccc2c(c1)-c1nn(CCCN(C)C)c3ccc([N+](=O)[O-])c(c13)N2` [PYRAZOLOACRIDINE] gave a concentration for half-maximal inhibition (IC50) of 45 µM.
